# Data taken from patent US20240390434A1, “PROBIOTIC ENHANCERS AND USES THEREOF” (Blis Technologies Limited, priority 2021, published 2024).
# Experiments:
# Type in all cases: cell-based
# S. pyogenes M76 = assay: Dose response deferred antagonism assay, producer K12; conditions: between 1.5% and 2.0% galactose
# Experimental: (§1) 1-2 producer strain colonies were transferred from a stock plate into 900 μL of suspension solution using a fresh cotton swab. Following this, suspensions were vortexed, and a sample was inoculated onto solid culture media using a fresh cotton swab. The inoculation was a streak that runs diametrically across the agar plate in a 1.5 cm wide strip. The plate was then incubated. Following incubation all visible colonies were removed by swabbing them from the agar surface. The plates were then treated with chloroform by dispensing 2 ml of chloroform onto 4 cm×4 cm piece of cloth and sealing the inverted agar plate on top for 30 minutes. The plates were then air dried for 30 minutes following chloroforming. 1-2 indicator strain colonies were then transferred from a stock plate into complementary suspension solution. The suspensions were then vortexed, and a sample was inoculated onto the same agar surface. These samples were streaked in a perpendicular direction to the initial producer streak.
# (§2) Each indicator streak was prepared with fresh a suspension containing cells from a corresponding stock plate containing the indicator strain of interest. Indicator strains suspension samples were transferred using a fresh cotton swab. Results were measured by qualitatively reviewing the subsequent (if any) sizes of the zones of inhibition (ZOI) of indicator strain colony growth. A positive result is when there is a distinctive reduction or complete inhibition of indicator colony growth on the culture medium.
# (§3) CABCa agar plates containing various concentrations of saccharide were prepared according to the methods described in Method 1. Producer strains were transferred from stock agar plates into 900 μL THB using a fresh cotton swab. A plastic spread plater was cut to approximately 1.2 cm width and then dipped into ethanol and left to air dry to ensure sterility. A 100 μL sample of the producer strain suspension was then dispensed onto the agar surface in a straight line running diametrically across the agar surface in (approximately) 20 μL spots. The spots were spaced approximately 1.5 cm apart from each other. The plastic spreader was then used to evenly distribute the spots across the agar surface in a 1.5 cm wide strip. This step was taken to ensure an even producer streak was inoculated onto the agar surface and provided an approximate measure of the initial inoculum concentration. Separate plastic spreaders were used for samples containing different producer strains. The samples were left to soak into the agar surface until there was no visible liquid remaining on the agar surface (approximately 20 minutes). Following producer streak preparations, the deferred antagonism assay protocol was followed as per Method 2. Results were recorded by measuring the size of the zone of inhibition (ZOI) in mm.
# (§4) The results presented in FIG. 1 and FIG. 2 illustrate the change in ear, nose, and throat (ENT) microorganism indicator strain zone of inhibition sizes. When K12 was cultured in the presence of various concentrations of galactose the ZOI sizes for several of the ENTR indicator strains increased markedly from the control condition (FIG. 1). M. catarrhalis TW1 and TW2 display similar changes in the ZOI sizes across the various concentrations of galactose. The change in TW1 ZOI size peaks at 1.5% galactose(w/v) (12 mm) then decreases at 2.0% galactose (w/v), whereas the change of TW2 ZOI size peaks at 2.0% galactose (w/v) (11 mm). The change in L. lactis T-21 ZOI sizes trend upwards relative to the concentration of galactose present in the culture medium.
# L. lactis T-21 = assay: as above; conditions: relative to the concentration of galactose
# Experimental: as §1, §2, §3, §4
# M. catarrhalis TW2 = assay: as above; conditions: 2.0% galactose (w/v), peak
# Experimental: as §1, §2, §3, §4
# S. mutans OMZ175 = assay: Deferred antagonism assay, producer S. salivarius K12; conditions: Streptococcus mutans, OMZ175, K12, read-out: Size of zone inhibition normalised to control, S. mutans OMZ175
# Experimental: as §1, §2, §3
# (§5) A dose response assay was carried out according to method 3 above, except a 1.2 cm streak was used. For the individual saccharide testing the pH of the producer streak was adjusted after the growth of producer to change the acidic conditions.
# (§6) A deferred antagonism assay was conducted using K12 or M18 raw ingredient suspended in Todd Hewitt broth (THB). This was spread as a 1.2 cm streak containing approximately 1-2×10^6 cfu down the middle of a CABCa control or CABCa galactose supplemented test plate. After 18 hrs growth at 37° C. with 5% CO2, bacterial growth was removed, and the pH of the agar in the initial streak was measured and adjusted to a pH of 6.5-7.5 using 0.5M sodium carbonate pH11 before sterilizing the agar surface using chloroform vapor. Bacterial test strains were suspended in i-THB before being swabbed across the plates perpendicular to the initial streak. Plates were incubated for a further 18 hrs incubation at 37° C. with 5% CO2 before measuring (mm) any zones of inhibition for each test strain, […]
# [1] = test system: S. saprophyticus ATCC 15305; assay: as above; conditions: Staphylococcus saprophyticus, ATCC15305, K12, read-out: Size of zone inhibition normalised to control, S. saprophyticus ATCC 15305
# Experimental: as §1, §2, §3, §5, §6
# S. pneumoniae D39 = assay: as above; conditions: Streptococcus pneumoniae, D39, K12, read-out: Size of zone inhibition normalised to control, S. pneumoniae D39
# Experimental: as §1, §2, §3, §5, §6
# S. constellatus T29 = assay: as above; conditions: Streptococcus constellatus, T29, K12, read-out: Size of zone inhibition normalised to control, S. constellatus T29
# Experimental: as §1, §2, §3, §5, §6
compound,measurement,setting,value
"O=C[C@H](O)[C@@H](O)[C@@H](O)[C@H](O)CO [Galactose, D-galactose]",change in M76 ZOI size,S. pyogenes M76,11 mm
same,change in L. lactis T-21 ZOI sizes,L. lactis T-21,trend upwards
same,change of TW2 ZOI size,M. catarrhalis TW2,11 mm
same,zone of inhibition at 0.5 % strength,S. mutans OMZ175; Galactose 0.5% w/w,10 mm
same,zone of inhibition at 1.25 % strength,S. mutans OMZ175; Galactose 1.25% w/w,10 mm
same,zone of inhibition at 1.7 % strength,S. mutans OMZ175; Galactose 1.7% w/w,0 mm
same,zone of inhibition at 2.5 % strength,S. mutans OMZ175; Galactose 2.5% w/w,0 mm
same,zone of inhibition at 3.3 % strength,S. mutans OMZ175; Galactose 3.3% w/w,0 mm
same,zone of inhibition at 5 % strength,S. mutans OMZ175; Galactose 5% w/w,0 mm
same,zone of inhibition at 0.5 % strength,[1]; Galactose 0.5% w/w,0 mm
same,zone of inhibition at 1.25 % strength,[1]; Galactose 1.25% w/w,0 mm
same,zone of inhibition at 1.7 % strength,[1]; Galactose 1.7% w/w,0 mm
same,zone of inhibition at 2.5 % strength,[1]; Galactose 2.5% w/w,0 mm
same,zone of inhibition at 3.3 % strength,[1]; Galactose 3.3% w/w,0 mm
same,zone of inhibition at 5 % strength,[1]; Galactose 5% w/w,0 mm
same,zone of inhibition at 0.5 % strength,S. pneumoniae D39; Galactose 0.5% w/w,8 mm
same,zone of inhibition at 1.25 % strength,S. pneumoniae D39; Galactose 1.25% w/w,3 mm
same,zone of inhibition at 1.7 % strength,S. pneumoniae D39; Galactose 1.7% w/w,2 mm
same,zone of inhibition at 2.5 % strength,S. pneumoniae D39; Galactose 2.5% w/w,6 mm
same,zone of inhibition at 3.3 % strength,S. pneumoniae D39; Galactose 3.3% w/w,0 mm
same,zone of inhibition at 5 % strength,S. pneumoniae D39; Galactose 5% w/w,0 mm
same,zone of inhibition at 0.5 % strength,S. constellatus T29; Galactose 0.5% w/w,14 mm
same,zone of inhibition at 1.25 % strength,S. constellatus T29; Galactose 1.25% w/w,15 mm
same,zone of inhibition at 1.7 % strength,S. constellatus T29; Galactose 1.7% w/w,12 mm
same,zone of inhibition at 2.5 % strength,S. constellatus T29; Galactose 2.5% w/w,13 mm
same,zone of inhibition at 3.3 % strength,S. constellatus T29; Galactose 3.3% w/w,10 mm
same,zone of inhibition at 5 % strength,S. constellatus T29; Galactose 5% w/w,0 mm
